According to BindingDB's records for doi:10.1016/s0960-894x(02)00371-2 (Neurocrine Biosciences, 2002):

Target: Gonadotropin-releasing hormone receptor (Rattus norvegicus) (UniProt P30969)
Assay: Compound was evaluated in cloned rat Gonadotropin-releasing hormone receptor assay for its ability to displace the binding of [125 I-Tyr, DLeu, NMeLeu, Pro-NEt]GnRH agonist

Chain of Gonadotropin-releasing hormone receptor (Rattus norvegicus) (P30969 whole entry, looked up): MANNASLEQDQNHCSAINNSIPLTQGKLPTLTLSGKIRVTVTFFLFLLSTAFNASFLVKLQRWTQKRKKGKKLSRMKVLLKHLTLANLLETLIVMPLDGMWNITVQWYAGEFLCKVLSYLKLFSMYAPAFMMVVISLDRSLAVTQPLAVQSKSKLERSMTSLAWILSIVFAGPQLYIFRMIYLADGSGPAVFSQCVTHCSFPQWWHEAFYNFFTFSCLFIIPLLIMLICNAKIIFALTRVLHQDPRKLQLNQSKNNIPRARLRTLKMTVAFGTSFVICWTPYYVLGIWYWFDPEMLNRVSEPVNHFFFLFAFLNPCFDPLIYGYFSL

Ki: 12 µM
Compound: COc1ccc(-c2nc3n(Cc4ccccc4F)c(C)c(-c4ccc5c(c4)OCO5)c(=O)n3c2CN(C)CCc2ccccn2)cc1 [6-Benzo[1,3]dioxol-5-yl-8-(2-fluoro-benzyl)-2-(4-methoxy-phenyl)-7-methyl-3-{[methyl-(2-pyridin-2-yl-ethyl)-amino]-methyl}-8H-imidazo[1,2-a]pyrimidin-5-one]
